Results on one substance are retold here after patent US8653040B2, “Compositions containing sesamin-class compound(s) and quercetin glycoside(s)” (Suntory Holdings Limited, priority 2007, dated 2014).

The data set is described as follows: Blood (plasma) concentration of sesamin and episesamin in rats after oral administration of the mixture of sesamin-class compounds alone or simultaneously with a test substance (LC-MS/MS). The note with it: Example 3, 10 mg/kg sesamin-class compounds plus 200 μmol/kg test flavonoid glycoside in 0.5% CMC suspension.

Experimental: SD (IGS) male rats (7-wk old) were purchased from CHARLES RIVER JAPAN INC. and habituated in the test environment for a week; the animals that were seen to grow normally were selected and subjected to the test. […] After adding an internal standard (UDESMIN; Funakoshi Co., Ltd.) to the samples, solid-phase extraction was performed with Oasis HLB and the resulting solution was concentrated under vacuum, suspended in methanol, passed through a filter, and subjected to LC-MS/MS for quantification of sesamin. The quantities of the sesamin-class compounds were determined from the ratio between their peak area and that of UDESMIN used as the internal standard. […]

αG-hesperidin: the “bodily absorption amount (AUC) of the sesamin-class compounds relative to the control” value came to 0.71 times.
